What all share (format): binding
For one data set, the target named is T1, GST-ARNO(wt) (Homo sapiens, UniProt Q99418).
T1 construct: i) 1-400aa, full length ARNO(wt); made in house; host or cells: E. coli BL21(DE3)
T1 sequence (Q99418 1-400): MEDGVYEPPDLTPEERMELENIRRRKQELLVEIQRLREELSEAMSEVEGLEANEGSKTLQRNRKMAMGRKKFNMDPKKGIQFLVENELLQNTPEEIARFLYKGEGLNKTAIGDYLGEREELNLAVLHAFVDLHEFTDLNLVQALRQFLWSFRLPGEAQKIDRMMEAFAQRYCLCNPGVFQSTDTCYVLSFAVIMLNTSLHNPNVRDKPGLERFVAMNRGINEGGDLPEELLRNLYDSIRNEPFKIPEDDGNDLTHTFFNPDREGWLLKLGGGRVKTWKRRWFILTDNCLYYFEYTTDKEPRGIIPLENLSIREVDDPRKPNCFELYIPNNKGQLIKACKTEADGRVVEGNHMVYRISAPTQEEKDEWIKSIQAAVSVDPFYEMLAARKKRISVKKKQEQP
The data set can be described thus: a2N-derived peptide pull-down assay with GST-ARNO(wt). Also on record: key to interaction with ARNO (asterisk mark in Table 1): The interacting peptides are indicated in bold with an asterisk (*). As for the experimental part:
FIG. 2A is an image of a Western blot showing the results of an a2N-derived peptide pull-down assay. The indicated a2N-derived peptides were immobilized on streptavidin-beads and incubated with purified recombinant GST-ARNO(wt). Interacting complexes were eluted and analyzed by Western blotting using monoclonal anti-GST antibodies.
FIG. 2B is an image of a Western blot showing the results of a pull-down assay with selected a2N-derived interacting peptides incubated with either GST (negative control) or GST-ARNO(wt). The first two lanes show the patterns obtained when either GST-only (lane 1) or GST-ARNO(wt) (lane 2) were loaded onto the gel.
Peptides were synthesized, purified by HPLC and analyzed by mass spectrometry in the MGH Peptide/Protein Core Facility. All a2N-derived peptides were synthesized with a biotin-tag on the N-terminus for immobilization on streptavidin-agarose beads and with an additional C-terminal cysteine residue for immobilization on beads using sulfhydryl-specific crosslinkers. A peptide corresponding to the PB-domain of ARNO was synthesized containing either a non-phosphorylated or a phosphorylated Ser392 residue. Peptide stock solutions were prepared in DMSO at 5 mM concentration and stored at −20° C. […]

For the next data set, the target named is T2, ARNO Sec7-domain (Homo sapiens, UniProt Q99418).
T2 construct: iii) 61-252aa, Sec7 domain; made in house; host or cells: E. coli BL21(DE3)
T2 sequence (Q99418 61-252): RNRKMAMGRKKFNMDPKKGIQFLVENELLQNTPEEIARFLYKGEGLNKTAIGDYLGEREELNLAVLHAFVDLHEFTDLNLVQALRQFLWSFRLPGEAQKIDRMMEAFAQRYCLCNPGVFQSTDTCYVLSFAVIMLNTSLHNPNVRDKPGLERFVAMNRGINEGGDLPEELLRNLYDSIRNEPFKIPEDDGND
The data set can be described thus: GST pull-down of in vitro translated a2N with ARNO Sec7-domain. As to conditions: Western blot anti-a2N. As for the experimental part: (§1) The purified recombinant GST-ARNO(wt) and GST-tagged ARNO domain constructs ([…]) were incubated with 10 μl of in vitro translated 6His-a2N recombinant protein at 4° C. for 2 hours in 500 μl of binding buffer (10 mM HEPES, 1 mM EDTA, 1 mM DTT, 100 mM NaCl, 10% glycerol, 0.1% NP-40) with gentle rotation. Then the interacting recombinant proteins were immobilized on glutathione beads by incubation with 50 μl of 50% glutathione Sepharose 4B slurry for 2 hours at 4° C. The beads were collected by centrifugation and washed 5 times with 500 μl ice-cold binding buffer. Interacting proteins were eluted by boiling in SDS-PAGE sample buffer for 10 min at 95° C., resolved by SDS-PAGE and analyzed by Western blotting using polyclonal anti-a2N antibodies. […]
(§2) To examine the ability of these well-defined and functionally distinct domains of ARNO to interact with a2N1-402, full-length ARNO(wt) and its four domains were cloned separately for bacterial expression of recombinant proteins (FIG. 3). […] Interacting proteins were detected by western blot analysis with a2-specific antibodies as described above.
Background: A western blot detects proteins with antibodies after separation by electrophoresis.

The next data set has as its target T3, ARNO PB-domain (Homo sapiens, UniProt Q99418).
T3 construct: v) 379-400aa, polybasic (PB) domain; made in house; host or cells: E. coli BL21(DE3)
The data set can be described thus: GST pull-down of in vitro translated a2N with ARNO PB-domain. To be noted: GST pull-down with GST- and His-tagged PB-domain construct. As for the experimental part:
as §1, §2

Peptide text beside a SMILES is read from it. * marks the point of attachment. Biotin = O=C1N[C@H]2[C@H](CS[C@H]2CCCCC(=O)*)N1

For the molecule `CSCC[C@H](NC(=O)CCCC[C@@H]1SC[C@@H]2NC(=O)N[C@@H]21)C(=O)NCC(=O)N[C@@H](CO)C(=O)N[C@@H](CC(C)C)C(=O)N[C@@H](Cc1ccccc1)C(=O)N[C@@H](CCCNC(=N)N)C(=O)N[C@@H](CO)C(=O)N[C@@H](CCC(=O)O)C(=O)N[C@@H](CO)C(=O)N[C@@H](CCSC)C(=O)N[C@@H](CS)C(=O)N[C@@H](CC(C)C)C(=O)N[C@@H](C)C(=O)N[C@@H](CCC(N)=O)C(=O)N[C@@H](CC(C)C)C(=O)N[C@@H](Cc1ccccc1)C(=O)N[C@@H](CC(C)C)C(=O)N[C@@H](CS)C(=O)O` [a2N-01, Bio-MGSLFRSE SMCLAQLFL-Cys] (Biotin-MGSLFRSESMCLAQLFLC-OH; N-terminus and C-terminus assumed), the “interaction of a2N-derived peptide with GST-ARNO(wt) in pull-down” value at GST-ARNO(wt) (Western blot anti-GST, GST-only as control) is “specific interaction”. For the same molecule, the “interaction with ARNO (asterisk mark in Table 1)” value on GST-ARNO(wt) (biotin-tagged peptides on streptavidin beads) is “Bio-MGSLFRSE SMCLAQLFL-Cys *”.

B1: a2N: recombinant N-terminal cytosolic tail, amino acid residues 1-402 of mouse V-ATPase a2-subunit (protein)
chain: MGSLFRSESMCLAQLFLQSGTAYECLSALGEKGLVQFRDLNQNVSSFQRKFVGEVKRCEELERILVYLVQEITRADIPLPEGEASPPAPPLKHVLEMQEQLQKLEVELREVTKNKEKLRKNLLELVEYTHMLRVTKTFLKRNVEFEPTYEEFPALENDSLLDYSCMQRLGAKLGFVSGLIQQGRVEAFERMLWRACKGYTIVTYAELDECLEDPETGEVIKWYVFLISFWGEQIGHKVKKICDCYHCHIYPYPNTAEERREIQEGLNTRIQDLYTVLHKTEDYLRQVLCKAAESVCSRVVQVRKMKAIYHMLNMCSFDVTNKCLIAEVWCPEVDLPGLRRALEEGSRESGATIPSFMNTIPTKETPPTLIRTNKFTEGFQNIVDAYGVGSYREVNPALFTII
modifications: left off: small tags and cut ends
notes: recombinant N-terminal cytosolic tail, amino acid residues 1-402 of mouse V-ATPase a2-subunit
On to B1, for which the “interaction of a2N with ARNO Sec7-domain” value in the data set with ARNO Sec7-domain was “interacts strongly”. Further, in the data set with ARNO PB-domain, the “interaction of a2N with ARNO PB-domain” value is reported as “no interaction”.
